The source of these data is USRE49873E1, “APP specific bace inhibitors (ASBIs) and uses thereof” (BUCK INSTITUTE FOR RESEARCH ON AGING, priority 2012, dated 2024).

Assay [1] concerns β-CTF production in CHO cells stably over-expressing human APP. Briefly: β-CTF western blot in CHO cells over-expressing human APP. Type of assay: cell-based, Chinese Hamster. The conditions noted are these: 10 μM, 24 hr, western blot of cell lysates. On the procedure:
Chinese Hamster Ovary (CHO) cells stably over-expressing human APP were treated with 10 μM Galangin or DMSO for 24 hr, then the cell lysates and conditioned media were collected. The levels of full length APP and β-CTF in the cell lysates and the levels of sAPPα in the conditioned media were detected by western blot. […] BACE1-dependent cleavage of SEAP-NRG1-β1 was evaluated by SEAP assays with supernatants of control human embryonic kidney 293 (HEK293) cells (SEAP-NRG1-β1) or HEK293 cells co-expressing BACE1 (SEAP-NRG1-β1+BACE1), treated with DMSO or Galangin (10 μM). An increase in shedding of the SEAP-NRG1-b1 fusion protein was measured upon BACE1 co-expression. Shedding in co-expressing cells was not suppressed by Galangin. Error bars indicate SEM. (N.S., p>0.05; n=4, student t test).
The Chinese Hamster Ovary (CHO) cell line over-expressing human AβPP (7 W) was kindly provided by Dr. Edward Koo. Plasmid constructs were transiently transfected into HEK293T or 7 W cells with Lipofectamine 2000 (Invitrogen). Western Blot analysis was performed as previously described (Swistowski et al. (2009) J. Neurosci., 29: 15703-15712). Briefly, 48 hr after transfection, cells were harvested and lysed in NP-40 Cell Lysis Buffer (50 mM TrisHCl, pH 8.0, 150 mM NaCl and 1% NP-40). Cell lysates were mixed with 1×LDS loading buffer (Invitrogen) and 50 mM DTT, and boiled at 100° C. for 10 min. […]

Assay [2] has as its system APP-Gal4 transactivation in HEK293T cells. As to the kind of experiment: APP-Gal4/Mint3/TAZ transactivation assay. As to conditions: Mint3 and TAZ present, galangin at 10 μM. Type of assay: cell-based. From the text:
FIGS. 7A and 7B illustrate inhibition of APP-Gal4 and APLP2-Gal4 transactivation by galangin. […] This transactivation was inhibited by Galangin and BACE inhibitor IV. FIG. 7B: Potent transactivation of transcription was also achieved with APLP2 fused to the Gal4 DNA binding domain when both Mint3 and TAZ were present. This transactivation was inhibited by Galangin and BACE inhibitor IV. […] The normalized luciferase activity is expressed as a percentage of the DMSO treated control (FIGS. 7A, 7B). Error bars indicate SEM. (*, p<0.05; **, p<0.01; ***, p<0.001; n=3, student t test).
This assay system is described by Orcholski et al. (2011) J. Alzheimers Dis., 23(4):689-699. Transactivation is achieved upon transfection with Mint3 and Taz. The ASBI was expected to inhibit only the transactivation of APP-Gal4, not that of APLP2-Gal4. For these experiments cells were co-transfected with a Gal4-luciferase reporter plasmid (to measure transactivation), a beta-galactosidase plasmid (to normalize for transfection efficiency), and the test plasmids identified. The normalized luciferase activity was expressed as fold induction over transcription by APP-Gal4 alone (FIG. 7A), or as fold induction over APLP2-Gal4 alone (FIG. 7B).
HEK293T cells were co-transfected with five plasmids: (1) pG5E1B-luc, 0.3 μg; (2) pCMV-LacZ, 0.1 μg; (3) pMst-APP (APP-Gal4) or pcDNA3.1-APLP2-Gal4, 0.3 μg; (4) pCMV5-Mint3, 1.0 μg; (5) pEF-N-FLAG-TAZ, 1.0 μg. Cells were harvested 48 hr after transfection in 0.2 ml per well Cell Culture Lysis Buffer (Promega), and their luciferase and β-galactosidase activities were determined with the Promega luciferase assay kit and the Promega β-galactosidase assay kit, respectively. The luciferase activity was standardized by the β-galactosidase activity to control for transfection efficiency and general effects on transcription. Transfections were performed at 80-90% cofluency in six-well plates using Lipofectamine 2000 (Invitrogen).

Assay [3] addresses acetylcholine esterase (AChE) (Homo sapiens, UniProt P22303). The conditions noted are these: Guo et al. (2010); cited from earlier work.

Structures are written as SMILES. “Also recorded” adds a separate entry of the source.

Sequence of acetylcholine esterase (AChE) (P22303 32-614): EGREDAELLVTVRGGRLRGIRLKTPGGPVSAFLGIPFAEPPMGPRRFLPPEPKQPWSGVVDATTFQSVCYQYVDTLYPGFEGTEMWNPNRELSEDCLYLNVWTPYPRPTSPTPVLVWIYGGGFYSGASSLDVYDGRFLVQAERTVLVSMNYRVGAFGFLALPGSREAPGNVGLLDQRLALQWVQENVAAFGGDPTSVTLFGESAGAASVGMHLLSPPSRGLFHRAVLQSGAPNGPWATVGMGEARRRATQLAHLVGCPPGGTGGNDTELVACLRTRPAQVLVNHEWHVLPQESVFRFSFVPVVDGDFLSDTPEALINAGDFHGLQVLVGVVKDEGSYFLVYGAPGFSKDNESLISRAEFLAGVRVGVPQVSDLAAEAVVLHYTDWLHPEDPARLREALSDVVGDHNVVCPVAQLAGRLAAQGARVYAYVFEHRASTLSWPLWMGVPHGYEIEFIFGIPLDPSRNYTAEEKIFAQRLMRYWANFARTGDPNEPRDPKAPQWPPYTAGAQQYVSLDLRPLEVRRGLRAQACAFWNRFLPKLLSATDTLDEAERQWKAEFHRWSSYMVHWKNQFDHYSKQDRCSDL

In the case of `O=c1c(O)c(-c2ccccc2)oc2cc(O)cc(O)c12` [Galangin], the β-CTF production entry in assay [1] was “inhibits β-CTF production”. Further, the APP-Gal4 transactivation result in assay [2] is “inhibited”; in assay [2] (listed as galangin), “inhibit; also recorded: inhibits APP-Gal4 and APLP2-Gal4”. Further, the “inhibitor of acetylcholine esterase (AChE)” value in assay [3] was “inhibitor of acetylcholine esterase (AChE)”.
